# Test results as given in publication PMC10836395, “Investigation of how gate residues in the main channel affect the catalytic activity of Scytalidium thermophilum catalase” (Acta Crystallographica. Section D, Structural Biology, 2024).
# Where a chain is given by its changes, count along the chain named. Marks after values point to notes of the source that are not given here.
# What was measured:
# [1] = molecular target: T1, CATPO E484I variant (Scytalidium thermophilum (Humicola insolens), UniProt M4GGR5, E503I); assay: biochemical
# [2] = molecular target: CATPO (Scytalidium thermophilum (Humicola insolens), UniProt M4GGR5); assay: Inhibition of catechol oxidation; assay type: biochemical; details: catechol oxidation by CATPO; catechol 1 to 100 mM; read-out: K i
# [3] = molecular target: CATPO E484D variant (Scytalidium thermophilum (Humicola insolens), UniProt M4GGR5, E503D); assay: biochemical
# [4] = molecular target: T1, CATPO E484I variant; assay type: biochemical
# [5] = molecular target: CATPO T188D variant (Scytalidium thermophilum (Humicola insolens), UniProt M4GGR5, T207D); assay type: biochemical
# [6] = molecular target: T2, E484A (Mycothermus thermophilus, UniProt M4GGR5, E503A); assay: Spectrophotometric phenol oxidase assay without H2O2 at pH 7.0 and 60 °C, initial rates fitted to the Michaelis-Menten equation.; assay type: biochemical; details: read-out: Phenol oxidase K m; n = 3
# T2 construct: recombinant, pET-28-TEV-CATPO; contains heme b; Rz 0.8
# T2 sequence (M4GGR5 20-717 E503A): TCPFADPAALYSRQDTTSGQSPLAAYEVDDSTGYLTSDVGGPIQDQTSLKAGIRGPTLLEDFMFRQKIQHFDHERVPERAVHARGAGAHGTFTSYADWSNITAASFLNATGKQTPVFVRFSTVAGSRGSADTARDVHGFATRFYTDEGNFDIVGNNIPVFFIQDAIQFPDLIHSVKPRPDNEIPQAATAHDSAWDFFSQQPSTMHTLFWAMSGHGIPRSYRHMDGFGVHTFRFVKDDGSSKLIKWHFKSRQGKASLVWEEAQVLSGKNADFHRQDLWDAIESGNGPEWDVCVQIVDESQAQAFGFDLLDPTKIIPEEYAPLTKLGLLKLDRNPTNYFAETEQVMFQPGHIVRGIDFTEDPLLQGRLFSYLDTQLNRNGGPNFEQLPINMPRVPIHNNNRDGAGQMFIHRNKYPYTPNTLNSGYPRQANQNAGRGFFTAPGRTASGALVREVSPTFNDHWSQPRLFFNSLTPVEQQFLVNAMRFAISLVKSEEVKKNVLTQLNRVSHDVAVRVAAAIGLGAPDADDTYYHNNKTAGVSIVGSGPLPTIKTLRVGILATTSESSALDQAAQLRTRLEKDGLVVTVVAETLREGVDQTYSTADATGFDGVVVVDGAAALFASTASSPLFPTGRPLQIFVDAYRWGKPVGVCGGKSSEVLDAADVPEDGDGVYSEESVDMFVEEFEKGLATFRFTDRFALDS
# Protocol: (§1) All inhibition assays were performed in triplicate.
# [7] = molecular target: T3, T188I (Mycothermus thermophilus, UniProt M4GGR5, T207I); assay: as above; assay type: biochemical; details: read-out: Phenol oxidase K m; n = 3
# T3 construct: recombinant, pET-28-TEV-CATPO; contains heme b; Rz 0.4
# T3 sequence (M4GGR5 20-717 T207I): T2 sequence (M4GGR5 20-717 E503A) with T188I, A484E
# Protocol: as §1
# [8] = molecular target: CATPO T188A variant (Scytalidium thermophilum (Humicola insolens), UniProt M4GGR5, T207A); assay: biochemical
# [9] = molecular target: CATPO T188F variant (Scytalidium thermophilum (Humicola insolens), UniProt M4GGR5, T207F); assay type: biochemical
# [10] = molecular target: CATPO T188I variant (Scytalidium thermophilum (Humicola insolens), UniProt M4GGR5, T207I); assay: biochemical
# CATPO T188I variant, sequence (M4GGR5 entry or part of it T207I): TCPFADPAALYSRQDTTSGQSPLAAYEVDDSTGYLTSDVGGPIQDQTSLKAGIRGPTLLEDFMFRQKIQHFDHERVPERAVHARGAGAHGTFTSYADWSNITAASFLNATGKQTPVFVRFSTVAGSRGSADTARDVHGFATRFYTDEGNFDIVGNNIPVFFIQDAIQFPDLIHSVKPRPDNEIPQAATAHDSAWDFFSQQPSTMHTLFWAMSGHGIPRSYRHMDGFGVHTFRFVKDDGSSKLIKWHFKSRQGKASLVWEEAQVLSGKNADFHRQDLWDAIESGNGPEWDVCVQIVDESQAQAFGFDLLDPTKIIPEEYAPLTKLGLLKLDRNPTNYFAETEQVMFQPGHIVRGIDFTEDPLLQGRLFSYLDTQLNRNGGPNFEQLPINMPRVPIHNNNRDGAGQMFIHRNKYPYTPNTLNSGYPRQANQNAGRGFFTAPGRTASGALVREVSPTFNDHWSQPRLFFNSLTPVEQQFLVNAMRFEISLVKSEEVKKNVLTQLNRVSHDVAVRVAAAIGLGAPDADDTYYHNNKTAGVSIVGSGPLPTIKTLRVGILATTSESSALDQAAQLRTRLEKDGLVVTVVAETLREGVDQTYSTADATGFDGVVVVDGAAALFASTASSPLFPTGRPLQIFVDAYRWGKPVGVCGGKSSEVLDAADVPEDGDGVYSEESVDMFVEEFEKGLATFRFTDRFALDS
# CATPO T188F variant, sequence (M4GGR5 entry or part of it T207F): as the sequence (M4GGR5 entry or part of it T207I) above
# T1 sequence (M4GGR5 entry or part of it E503I): as the sequence (M4GGR5 entry or part of it T207I) above
# CATPO T188D variant, sequence (M4GGR5 entry or part of it T207D): as the sequence (M4GGR5 entry or part of it T207I) above
# CATPO, sequence (M4GGR5 entry or part of it): as the sequence (M4GGR5 entry or part of it T207I) above
# CATPO E484D variant, sequence (M4GGR5 entry or part of it E503D): as the sequence (M4GGR5 entry or part of it T207I) above
# CATPO T188A variant, sequence (M4GGR5 entry or part of it T207A): as the sequence (M4GGR5 entry or part of it T207I) above
smiles,measurement,setting,value
"Oc1cccc(O)c1O [Pyrogallol, pyrogallol]",Ki,[1],58 ± 1.8 mM
same,Ki,[2],4.2 ± 0.8 mM
same,Ki,[3],4.1 ± 0.7 mM
same,V max,[4],20300 ± 330 mM/min
same,k cat/K m,[4],3060 ± 30 s^−1 M^−1 (×10^2)
same,K m,"[4]; pH 7.0 (ABTS pH 5.0), 60°C",40 ± 1.1 mM
same,V max,[5],15000 ± 150 mM/min
same,k cat/K m,[5],5710 ± 200 s^−1 M^−1 (×10^2)
same,K m,"[5]; pH 7.0 (ABTS pH 5.0), 60°C",41 ± 1.0 mM
same,K m,[6],36 ± 0.7 mM
same,K m,[7],38 ± 0.5 mM
same,Ki,[8],4.1 ± 0.8 mM
same,V max,[9],28100 ± 760 mM/min
same,k cat/K m,[9],3930 ± 250 s^−1 M^−1 (×10^2)
same,K m,"[9]; pH 7.0 (ABTS pH 5.0), 60°C",37 ± 0.5 mM
same,Ki,[10],62 ± 2.5 mM
